Measured values published in US20230128120A1, “OMEGA MURICHOLIC ACID AS A PREGNANE X RECEPTOR LIGAND FOR TREATING HEPATO-INTESTINAL DISEASES” (University of Washington, priority 2021, published 2023).
Entries after “also recorded” stand apart in the source; their conditions may differ.

Experiments:
Assay type in all cases: cell-based
human PXR = biological target: T1, human PXR (Homo sapiens, UniProt O75469); experiment: Reporter assay in LS intestinal cells transfected with human PXR + reporter; conditions: 24 h incubation, dose-response, up to the maximum tested concentration, four cell passages
T1 sequence (O75469 1-434): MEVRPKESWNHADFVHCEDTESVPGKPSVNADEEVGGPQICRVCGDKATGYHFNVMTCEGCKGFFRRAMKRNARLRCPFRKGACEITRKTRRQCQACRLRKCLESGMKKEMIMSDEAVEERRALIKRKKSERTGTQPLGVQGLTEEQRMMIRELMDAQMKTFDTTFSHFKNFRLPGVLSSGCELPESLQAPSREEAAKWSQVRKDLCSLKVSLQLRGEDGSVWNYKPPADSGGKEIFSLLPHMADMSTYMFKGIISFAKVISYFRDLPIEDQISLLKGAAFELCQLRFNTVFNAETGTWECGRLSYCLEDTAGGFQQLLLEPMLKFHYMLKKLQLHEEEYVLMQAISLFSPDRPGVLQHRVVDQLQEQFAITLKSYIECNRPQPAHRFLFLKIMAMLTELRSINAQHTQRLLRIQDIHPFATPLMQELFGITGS
Method: Reporter assay was performed using LS intestinal cells transfected with human PXR + reporter. Incubation time was 24 h and a dose-response curve was plotted. Results were confirmed using four different cells passages.
Percent displacement of reporter from human PXR as a function of MDCA concentration was evaluated and the results are shown in FIG. 9.
A reporter assay was performed using LS intestinal cells transfected with human PXR + reporter. Incubation time was 24 h and a dose-response curve was plotted. Results were confirmed using four different cells passages.

mouse PXR (mPXR) = biological target: T2, mouse PXR (mPXR) (Mus musculus, UniProt O54915); experiment: Luciferase reporter assay with mouse PXR (mPXR) plasmid; conditions: in vitro at 1 µM and 10 µM
T2 construct: expressed in transfected cells
T2 sequence (O54915 1-431): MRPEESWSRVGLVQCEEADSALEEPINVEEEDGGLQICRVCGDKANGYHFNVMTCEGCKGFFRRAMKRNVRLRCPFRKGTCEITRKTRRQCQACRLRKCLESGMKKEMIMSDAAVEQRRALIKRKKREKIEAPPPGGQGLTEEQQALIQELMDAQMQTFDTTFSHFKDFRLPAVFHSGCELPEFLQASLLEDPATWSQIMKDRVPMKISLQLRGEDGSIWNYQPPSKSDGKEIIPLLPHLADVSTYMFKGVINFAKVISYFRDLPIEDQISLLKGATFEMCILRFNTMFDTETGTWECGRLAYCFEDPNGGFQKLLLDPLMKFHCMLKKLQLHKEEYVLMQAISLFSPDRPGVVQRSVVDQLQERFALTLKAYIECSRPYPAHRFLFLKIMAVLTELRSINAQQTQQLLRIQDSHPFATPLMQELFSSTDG
Text: (§1) Data are expressed as average of relative luciferase units among the technical triplicates ± S.E. Asterisks (*) represent statistically significant difference as compared to the vehicle group (one-way ANOVA followed by Duncan’s post hoc test, p < 0.05).
(§2) The prototypical mPXR ligand pregnenolone 16α-carbonitrile (PCN) was used as a positive control (FIG. 4B right panel). […] The prototypical hPXR ligand rifampicin (Rif) was used as a positive control (FIG. 4B left panel).

human PXR (hPXR) = biological target: T3, human PXR (hPXR) (Homo sapiens, UniProt O75469); experiment: Luciferase reporter assay with human PXR (hPXR) plasmid; conditions: in vitro at 5 µM
T3 construct: expressed in transfected cells
T3 sequence (O75469 1-434): T1 sequence (O75469 1-434)
Text: as §1, §2

| SMILES | binding affinity towards PXR (percent displacement of reporter from human PXR) (human PXR; listed as MDCA) | mPXR activation (relative luciferase units vs vehicle) (mouse PXR (mPXR)) | hPXR activation (relative luciferase units vs vehicle) (human PXR (hPXR)) | binding affinity towards PXR (percent displacement of reporter from human PXR) (human PXR) |
| --- | --- | --- | --- | --- |
| C[C@H](CCC(=O)O)[C@H]1CC[C@H]2[C@@H]3C[C@H](O)[C@@H]4C[C@H](O)CC[C@]4(C)[C@H]3CC[C@]12C [murideoxycholic acid] | no binding affinity; also recorded: totally inactive |  |  |  |
| C[C@H](CCC(=O)O)[C@H]1CC[C@H]2[C@@H]3[C@@H](O)[C@H](O)[C@@H]4C[C@H](O)CC[C@]4(C)[C@H]3CC[C@]12C [omega muricholic acid, ω-muricholic acid] |  | activated | weakly activated | effective binding |
